“And” between values parts separate entries of the source, which are not always exact repeats. Equal entries are not always repeated.
Assays:
[1] = system: murine peritoneal exudate cells (PEC); assay: "In vitro-ex vivo" effect on the phagocytic activity of exudate peritoneal cells (SRBC phagocytosis); parameters: species or system mouse (B6 D2 F1); conditions: for SRBC per phagocytizing cell: average number of SRBC in each phagocyte
Description: Assessment of the "in vitro-ex vivo" effect of ST 557, ST 563, ST 564, ST 570, ST 608 and ST 626 on the phagocytic activity of exudate peritoneal cells (PEC)
Male B6 D2 F1 mice aged 6-8 weeks (5 animals each group) were used.
The compounds were administered i.p. (25 mg/kg/day), ST 557, ST 563 and ST 626 were also administered per os (100 mg/kg/day) from day -5 to day -1 (PEC harvesting at day 0).
The experimental procedure was substantially the same as that described by Williams et al., in "Methods in Immunology and Immunochemistry", Acad. Press. 5: 261 (1976).
In particular, 24 hours following the end of the treatment, PECs from each experimental group were harvested, pooled and their concentration was adjusted to 4×10^6 cells/ml.
To volumes of 250 μl of each PEC sample were added equal volumes of 0.4% SRBC (Sheep Red Blood Cells) opsonized with hyperimmune serum.
The samples (duplicate) were incubated for 1 hour and then subjected to hypotonic shock in order to remove the non-phagocytized SRBC. After restoring the osmolarity, the phagocytes were cytocentrifuged, stained with a differential dye and observed under the microscope.
The results were expressed as:
(a) percentage of cells that have phagocytized with respect to 100 phagocytizing cells;
(b) total number of phagocytized SRBC;
(c) average number of SRBC in each phagocyte.

splenocytes = assay: "In vitro-ex vivo" effect on the mytogen (PHA, LPS)-induced splenocyte proliferation in mice; parameters: species or system mouse (B6 D2 F1); conditions: 25 mg/kg/day i.p.
Description: Assessment of the "in vitro-ex vivo" effect of ST 557, ST 563, ST 608 on the mytogen (PHA, LPS)-induced splenocyte proliferation in mice
Male B6 D2 F1 mice aged 6-10 weeks (4 animals per group) were used.
The compounds were administered i.p. 25 mg/kg/day, from day -5 to -1 (spleen excision at day 0).
PHA (active on T lymphocytes) and LPS (active on B lymphocytes) were used as mytogens. Each mytogen was tested at three different concentrations (suboptimal, optimal, superoptimal): 0.5, 4 and 6 mcg/ml/well and 0.5, 150 and 500 mcg/ml/well, respectively.
The experimental procedure was conducted substantially as described by Kirchner et al., "Splenic suppressor macrophages induced in mice by injection of C. parvum", J. Immunol., 1975, 115: 1212.
In particular, the cell suspensions obtained from the spleens of the animals of the same group were pooled and the cell concentration was adjusted to 5×10^6 cells/ml.
To volumes of 0.1 ml of each sample, equal volumes of the mytogen preparations were added so as to obtain, for each mytogen, the previously indicated final concentrations.
Each sample was prepared in triplicate in U-bottom microtiters. A control, to which 0.1 ml of medium were added instead of the mytogen, was also prepared. The control permits the extent of spontaneous proliferation in the absence of stimulation to be assessed.
The samples were incubated at 37° C. for 48 hours and then they were pulsed with 20 μl ^3 H-TdR (25 μCi/ml).
After 18 hours of further incubation, the cells were collected on filters and counted in a beta-counter.
The results of each sample are expressed by calculating the value of the area under the curve (AUC) obtained by plotting the values of the incorporated radioactivity (in cpm) versus the various concentrations of each mytogen.
In addition to AUC, the stimulation index (SI) is also considered, that is defined as follows. [formula]

[2] = system: peritoneal macrophages of treated mice; target tumor cells; assay: "In vitro-ex vivo" effect on the cytostatic activity of peritoneal macrophages; parameters: species or system mouse (B6 D2 F1); tumor targets human
Description: Assessment of the "in vitro-ex vivo" effect of ST 557, ST 563 and ST 570 on the cytostatic activity of peritoneal macrophages
Male B6 D2 F1 mice aged 7-9 weeks (5 animals per group) were used.
The compounds were administered i.p. (25 mg/kg/day), ST 557 and ST 563 were also administered per os (100 mg/kg/day) from day -5 to day -1 (peritoneal cell harvesting at day 0).
The macrophages and target tumor cell lines were prepared as in test 1 and their concentrations were adjusted to 1×10^6 M/ml and 5×10^4 cell/ml, respectively.
Volumes of tumor cells were added to the macrophage preparations so as to obtain Effector/Target ratios of 10:1, 20:1 and 40:1.
Each sample was pulsed with ^3 H-TdR for 18 hours in order to label the tumor cells, which were then collected on filters and counted in a beta-counter.
The macrophage cytostatic activity is expressed as percentage inhibition of tumor cell replication, by assessing the radioactivity incorporated by the tumor cells in each sample with respect to the maximum radioactivity incorporated by a sample consisting of tumor cells only. [formula]

## COc1cc2c(cc1OC)CC(N(CC1CC1)CC1CC1)CC2 (stereo not shown) [ST 557, 2-[(N,N-dicyclopropylmethyl)amino]-6,7-dimethoxytetraline]
[1]; 25 mg/kg/day i.p.
  Fagocytizing cells: 29.6%
  Total n° SRBC phagocytized: 93.6
  SRBC per phagocytizing cell: 3.20
[1]; 100 mg/kg/day os
  Fagocytizing cells: 59.0%
  Total n° SRBC phagocytized: 190.5
  SRBC per phagocytizing cell: 3.23
splenocytes; LPS
  AUC (area under curve, incorporated radioactivity vs mytogen concentration): 10312 ± 1253 ×10^-3 and 18914 ± 389 ×10^-3
  S.I. (stimulation index): 1.22 and 1.15
splenocytes; PHA
  S.I. (stimulation index): 1.27 and 1.13 and 1.73
[2]; E/T 10:1, 100 mg/kg/day os
  % of inhibition of target tumor growth: 24.3 ± 2.2%
[2]; E/T 20:1, 25 mg/kg/day i.p.
  % of inhibition of target tumor growth: 45.1 ± 1.1%
[2]; E/T 20:1, 100 mg/kg/day os
  % of inhibition of target tumor growth: 38.7 ± 1.6%
[2]; E/T 40:1, 25 mg/kg/day i.p.
  % of inhibition of target tumor growth: 68.9 ± 1.4%
[2]; E/T 40:1, 100 mg/kg/day os
  % of inhibition of target tumor growth: 62.8 ± 3.1%

## COc1cc2c(cc1OC)CC(NCC(O)c1ccc(C)cc1)CC2 (stereo not shown) [ST 563, 2-[(N-2-hydroxy-2-(4-methylphenyl)ethyl)amino]-6,7-dimethoxytetraline]
[1]; 25 mg/kg/day i.p.
  Fagocytizing cells: 42.5%
  Total n° SRBC phagocytized: 146.0
  SRBC per phagocytizing cell: 3.40
[1]; 100 mg/kg/day os
  Fagocytizing cells: 58.5%
  Total n° SRBC phagocytized: 164.0
  SRBC per phagocytizing cell: 2.80
splenocytes; LPS
  S.I. (stimulation index): 1.13 and 0.95
splenocytes; PHA
  AUC (area under curve, incorporated radioactivity vs mytogen concentration): 179 ± 3 ×10^-3 and 256 ± 21 ×10^-3 and 139 ± 5 ×10^-3
  S.I. (stimulation index): 1.09 and 1.28 and 1.12
[2]; E/T 10:1, 100 mg/kg/day os
  % of inhibition of target tumor growth: 25.0 ± 4.9%
[2]; E/T 20:1, 25 mg/kg/day i.p.
  % of inhibition of target tumor growth: 35.0 ± 1.6%
[2]; E/T 20:1, 100 mg/kg/day os
  % of inhibition of target tumor growth: 47.3 ± 0.6%
[2]; E/T 40:1, 25 mg/kg/day i.p.
  % of inhibition of target tumor growth: 55.7 ± 1.4%
[2]; E/T 40:1, 100 mg/kg/day os
  % of inhibition of target tumor growth: 62.8 ± 3.1%

Reference: patent US5962525A, “6,7-disubstituted-2-aminotetralines active as immunomodulators and pharmaceutical compositions containing same” (Sigma-Tau, priority 1990, dated 1999)
